Results taken from patent US11130769B2 (Prelude Therapeutics Incorporated, priority 2018, dated 2021).
Read-outs that look alike come from different tables or passages of the source.

Tests used:
[1] = system: H929 cells; assay: Cell viability assay (H929 10 FBS); assay type: cell-based; details: Homo sapiens, NCI-H929, 24 hours, read-out: H929_10FBS IC50
Outline: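 H929 cells, 4000/well, in RPMI 1640 with 10% FBS, sodium pyruvate, HEPES and glucose were exposed to compound 24 h at 37 °C. Viability read as luminescence after 30-60 min at RT with CellTiter-Glo or ATPlite 1 Step.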

[2] = target: MCL-1 (Homo sapiens (Human), UniProt Q07820); assay: Cell free Mcl-1:Bim affinity assay (fluorescence polarization competition); assay type: binding; details: 15 nM MCL-1, 5 nM FITC-Bim, 1 hour at room temperature, read-out: BIM_Ki
Outline: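 Compounds competed with FITC-labelled Bim peptide (5 nM) for MCL-1 (15 nM) in HEPES/NaCl buffer with 1% DMSO, 1 h at room temperature. Fluorescence polarization (535 nm emission) gave % inhibition versus DMSO and positive controls; IC50 from 10-point curves, converted to Ki by the Nikolovska-Coleska equation.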

Sequence of MCL-1 (Q07820 whole entry): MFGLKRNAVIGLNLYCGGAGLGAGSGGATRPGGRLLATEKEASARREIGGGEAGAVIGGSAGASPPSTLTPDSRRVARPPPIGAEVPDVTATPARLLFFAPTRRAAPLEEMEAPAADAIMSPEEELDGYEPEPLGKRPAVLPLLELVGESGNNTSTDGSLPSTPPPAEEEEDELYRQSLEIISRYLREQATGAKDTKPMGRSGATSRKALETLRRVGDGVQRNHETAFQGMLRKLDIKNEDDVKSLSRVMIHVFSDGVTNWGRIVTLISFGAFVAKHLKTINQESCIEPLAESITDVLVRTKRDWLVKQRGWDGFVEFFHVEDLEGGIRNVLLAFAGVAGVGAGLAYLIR

## CC1(C)OC/C=C/[C@H](OC(=O)NCCN2CCC(O)CC2)[C@@H]2CC[C@H]2CN2C[C@@]3(CCCc4cc(Cl)ccc43)COc3ccc(cc32)S(=O)(=O)NC1=O [Example 150, [(3R,6R,7S,8E,22S)-6′-Chloro-12,12-dimethyl-13,15,15-trioxo-spiro[11,20-dioxa-15-thia-1,14-diazatetracyclo[14.7.2.03,6.019,24]pentacosa-8,16,18,24-tetraene-22,1′-tetralin]-7-yl] N-[2-(4-hydroxy-1-piperidyl)ethyl]carbamate]
[1]
  IC50: < 1000 nM
[2]; class symbols
  Ki: < 1 nM

## CCCN1C/C=C/[C@H](OC(=O)N(C)C)[C@@H]2CC[C@H]2CN2C[C@@]3(CCCc4cc(Cl)ccc43)COc3ccc(cc32)S(=O)(=O)NC(=O)C1(C)C [Example 211, [(3R,6R,7S,8E,22S)-6′-Chloro-12,12-dimethyl-13,15,15-trioxo-11-propyl-spiro[20-oxa-15-thia-1,11,14-triazatetracyclo[14.7.2.03,6.019,24]pentacosa-8,16,18,24-tetraene-22,1′-tetralin]-7-yl] N,N-dimethylcarbamate]
[1]
  IC50: < 500 nM
[2]; class symbols
  Ki: < 1 nM

## C=CCCCC(=O)NS(=O)(=O)c1ccc2c(c1)N(Cc1cnn(CC=C)c1)CC1(CCCc3cc(Cl)ccc31)CO2 (stereo not shown) [Example 10, N-[5-[(1-Allylpyrazol-4-yl)methyl]-6′-chloro-spiro[2,4-dihydro-1,5-benzoxazepine-3,1′-tetralin]-7-yl]sulfonylhex-5-enamide]
[1]
  IC50: > 1000 nM
[2]; numeric values
  Ki: 1430 nM

## CC(=O)NS(=O)(=O)c1ccc2c(c1)N(CC1CC1)CC1(CCCc3cc(Cl)ccc31)CO2 (stereo not shown) [Example 2, N-[6′-Chloro-5-(cyclopropylmethyl)spiro[2,4-dihydro-1,5-benzoxazepine-3,1′-tetralin]-7-yl]sulfonylacetamide]
[1]
  IC50: > 1000 nM
[2]; numeric values
  Ki: 179 nM

## CN(C)C(=O)CO[C@@H]1/C=C/COC(C)(C)C(=O)NS(=O)(=O)c2ccc3c(c2)N(C[C@@H]2CC[C@H]21)C[C@@]1(CCCc2cc(Cl)ccc21)CO3 [Example 141, 2-[(3R,6R,7R,8E,22S)-6′-Chloro-12,12-dimethyl-13,15,15-trioxo-spiro[11,20-dioxa-15-thia-1,14-diazatetracyclo[14.7.2.03,6.019,24]pentacosa-8,16,18,24-tetraene-22,1′-tetralin]-7-yl]oxy-N,N-dimethyl-acetamide]
[1]
  IC50: < 500 nM
[2]; class symbols
  Ki: < 1 nM

## O=C1Cc2cccc(c2)OC[C@@H]2CC[C@H]2CN2C[C@@]3(CCCc4cc(Cl)ccc43)COc3ccc(cc32)S(=O)(=O)N1 [Example 18, (3R,6R,24S)-6′-Chloro-17,17-dioxo-spiro[8,22-dioxa-17λ^6-thia-1,16-diazapentacyclo[16.7.2.1^9,13.0^3,6.0^21,26]octacosa-9(28),10,12,18(27),19,21(26)-hexaene-24,1′-tetralin]-15-one]
[1]
  IC50: > 1000 nM
[2]; numeric values
  Ki: 1.4 nM

## O=C1Cc2ccn(n2)CC(=O)N2CCC(C2)CN2C[C@@]3(CCCc4cc(Cl)ccc43)COc3ccc(cc32)S(=O)(=O)N1 (stereo partly drawn) [Example 297, (23S)-6′-Chloro-16,16-dioxo-spiro[21-oxa-thia-1,6,9,15,27-pentazapentacyclo[15.7.2.13,6.19,12.020,25]octacosa-10,12(27),17,19,25-pentaene-23,1′-tetralin]-7,14-dione]
[1]
  IC50: > 1000 nM
[2]; class symbols
  Ki: 1 to 100 nM

## CC1(C)OC/C=C/[C@@H](O)[C@@H]2CC[C@H]2CN2C[C@@]3(CCCc4cc(Cl)ccc43)COc3ccc(cc32)S(=O)(=O)NC1=O [Example 36, (3R,6R,7R,8E,22S)-6′-Chloro-7-hydroxy-12,12-dimethyl-15,15-dioxo-spiro[11,20-dioxa-15-thia-1,14-diazatetracyclo[14.7.2.03,6.019,24]pentacosa-8,16,18,24-tetraene-22,1′-tetralin]-13-one]
[1]
  IC50: < 1000 nM
[2]; class symbols
  Ki: < 1 nM

## CC1(C)OC/C=C/[C@H](OC(=O)NCC2CC2)[C@@H]2CC[C@H]2CN2C[C@@]3(CCCc4cc(Cl)ccc43)COc3ccc(cc32)S(=O)(=O)NC1=O [Example 183, [(3R,6R,7S,8E,22S)-6′-Chloro-12,12-dimethyl-13,15,15-trioxo-spiro[11,20-dioxa-15-thia-1,14-diazatetracyclo[14.7.2.03,6.019,24]pentacosa-8,16,18,24-tetraene-22,1′-tetralin]-7-yl] N-(cyclopropylmethyl)carbamate]
[1]
  IC50: < 500 nM
[2]; class symbols
  Ki: < 1 nM

## COC1CN(C(=O)CO[C@H]2/C=C/COC(C)(C)C(=O)NS(=O)(=O)c3ccc4c(c3)N(C[C@@H]3CC[C@H]32)C[C@@]2(CCCc3cc(Cl)ccc32)CO4)C1 [Example 280, (3R,6R,7S,8E,22S)-6′-Chloro-7-[2-(3-methoxyazetidin-1-yl)-2-oxo-ethoxy]-12,12-dimethyl-15,15-dioxo-spiro[11,20-dioxa-15-thia-1,14-diazatetracyclo[14.7.2.03,6.019,24]pentacosa-8,16,18,24-tetraene-22,1′-tetralin]-13-one]
[1]
  IC50: < 500 nM
[2]; class symbols
  Ki: < 1 nM

## CN1CC[C@@H](NC(=O)O[C@H]2/C=C/COC(C)(C)C(=O)NS(=O)(=O)c3ccc4c(c3)N(C[C@@H]3CC[C@H]32)C[C@@]2(CCCc3cc(Cl)ccc32)CO4)C1 [Example 152, [(3R,6R,7S,8E,22S)-6′-Chloro-12,12-dimethyl-13,15,15-trioxo-spiro[11,20-dioxa-15-thia-1,14-diazatetracyclo[14.7.2.03,6.019,24]pentacosa-8,16,18,24-tetraene-22,1′-tetralin]-7-yl] N-[(3R)-1-methylpyrrolidin-3-yl]carbamate]
[1]
  IC50: < 500 nM
[2]; class symbols
  Ki: < 1 nM

## COCCOC[C@@H]1CC/C=C/[C@@H](OC)[C@@H]2CC[C@H]2CN2C[C@@]3(CCCc4cc(Cl)ccc43)COc3ccc(cc32)S(=O)(=O)NC1=O [Example 97, (3R,6R,7R,8E,12S,22S)-6′-Chloro-12-((2-methoxyethoxy)methyl)-7-methoxy-15,15-dioxo-spiro[20-oxa-15-thia-1,14-diazatetracyclo[14.7.2.03,6.019,24]pentacosa-8,16,18,24-tetraene-22,1′-tetralin]-13-one]
[1]
  IC50: > 1000 nM
[2]; class symbols
  Ki: < 1 nM

## CO[C@@H]1CCCCC(=O)NS(=O)(=O)c2ccc3c(c2)N(C[C@@H]2CC[C@H]21)C[C@@]1(CCCc2cc(Cl)ccc21)CO3 [Example 76, (3R,6R,7R,21S)-6′-Chloro-7-methoxy-14,14-dioxo-spiro[19-oxa-14-thia-1,13-diazatetracyclo[13.7.2.03,6.018,23]tetracosa-15,17,23-triene-21,1′-tetralin]-12-one]
[1]
  IC50: > 1000 nM
[2]; class symbols
  Ki: 1 to 100 nM

## CC1(C)OC/C=C/[C@H](OC(=O)N[C@@H]2CCOC2)[C@@H]2CC[C@H]2CN2C[C@@]3(CCCc4cc(Cl)ccc43)COc3ccc(cc32)S(=O)(=O)NC1=O [Example 62, [(3R,6R,7S,8E,22S)-6′-Chloro-12,12-dimethyl-13,15,15-trioxo-spiro[11,20-dioxa-15-thia-1,14-diazatetracyclo[14.7.2.03,6.019,24]pentacosa-8,16,18,24-tetraene-22,1′-tetralin]-7-yl] N-[(3R)-tetrahydrofuran-3-yl]carbamate]
[1]
  IC50: < 500 nM
[2]; class symbols
  Ki: < 1 nM
